Measured values from ChEMBL document CHEMBL1201862, “PubChem BioAssay data set” (2004).
The source made the active and inactive calls.

Key:
[1] = target: Kallikrein-7 (Homo sapiens, UniProt P49862); assay: Fluorescence Intensity-based biochemical primary high throughput dose response assay to identify activators of kallikrein-7 (K7) zymogen.
[2] = cells
[3] = target: Major prion protein (Homo sapiens, UniProt P04156); format: functional, cell-based
[4] = blockers of HIV-1 ZM109 envelope-driven cell-cell fusion – HeLa effector, CEM target cells, luciferase, cherry-pick, dose response (AID 652058); format: functional, cell-based;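 also: luciferase signal from HIV-1 Env mediated cell-cell fusion of effector and target cells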
[5] = viability loss in CEM21 cells – cell-based, CellTiter-Glo luminescence, cherry-picked, cytotoxicity control for viral fusion inhibitor project, dose response (AID 652042); format: functional;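 also: potency for signal decrease meaning cytotoxicity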
[6] = blockers of HIV-1 envelope-mediated cell-cell fusion – cherry-pick, dose response (AID 652057); format: functional, cell-based
[7] = HIV-1 AD8 envelope cell-cell fusion blockers – cherry-pick, dose response (AID 652062); format: functional, cell-based;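 also: luciferase signal from cell-cell fusion driven by HIV-1 clade B AD8 Env; potency is for inhibitors of fusion seen as a drop in luminescence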
[8] = target: Eukaryotic translation initiation factor 4E (Mus musculus, UniProt P63073); assay: blockers of eIF4G binding by eIF4E – biochemical, TR-FRET, dose response (AID 855); format: functional;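 also: potency for disrupting eIF4E binding to eIF4GI seen as loss of FRET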
[9] = target: Paired box protein Pax-8 (Homo sapiens, UniProt Q06710); assay: PAX8 transcriptional activity inhibition in RMG-I – RMG-I cells, luciferase, cherry-pick, dose response (AID 687027); format: functional, cell-based;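 also: luciferase reporter driven by Pax8 target thyroperoxidase promoter measured by SteadyGlo luminescence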
[10] = OVCAR-3 cell viability loss – plate reader, dry powder samples, PAX8 inhibitor project, dose response (AID 743044); format: functional, cell-based
[11] = OVCAR8 cell viability loss – plate reader, dry powder samples, PAX8 project, dose response (AID 743197); format: functional, cell-based; details: OVCAR-8
[12] = viability loss in THP-1 monocytes – THP-1 cells, cytotoxicity control for Vif-APOBEC3G degradation inhibitor project, dose response (AID 1117359); format: functional; details: THP-1
[13] = cells; format: functional
[14] = THP-1 cell cytotoxicity, dose response, cytotoxicity control for non-replicating M. tuberculosis project (AID 489025); format: functional
[15] = HepG2 cell cytotoxicity, dose response, cytotoxicity control for non-replicating M. tuberculosis project (AID 489018); format: functional; details: Mycobacterium tuberculosis
[16] = target: T1, Acyl-homoserine lactone acylase PvdQ (Pseudomonas aeruginosa (strain LESB58), UniProt Q9I194); assay: PvdQ acylase enzyme activity blockers – biochemical, fluorescence, plate reader and imaging, cherry-picks, dose response (AID 493231)
T1 sequence (Q9I194 whole entry): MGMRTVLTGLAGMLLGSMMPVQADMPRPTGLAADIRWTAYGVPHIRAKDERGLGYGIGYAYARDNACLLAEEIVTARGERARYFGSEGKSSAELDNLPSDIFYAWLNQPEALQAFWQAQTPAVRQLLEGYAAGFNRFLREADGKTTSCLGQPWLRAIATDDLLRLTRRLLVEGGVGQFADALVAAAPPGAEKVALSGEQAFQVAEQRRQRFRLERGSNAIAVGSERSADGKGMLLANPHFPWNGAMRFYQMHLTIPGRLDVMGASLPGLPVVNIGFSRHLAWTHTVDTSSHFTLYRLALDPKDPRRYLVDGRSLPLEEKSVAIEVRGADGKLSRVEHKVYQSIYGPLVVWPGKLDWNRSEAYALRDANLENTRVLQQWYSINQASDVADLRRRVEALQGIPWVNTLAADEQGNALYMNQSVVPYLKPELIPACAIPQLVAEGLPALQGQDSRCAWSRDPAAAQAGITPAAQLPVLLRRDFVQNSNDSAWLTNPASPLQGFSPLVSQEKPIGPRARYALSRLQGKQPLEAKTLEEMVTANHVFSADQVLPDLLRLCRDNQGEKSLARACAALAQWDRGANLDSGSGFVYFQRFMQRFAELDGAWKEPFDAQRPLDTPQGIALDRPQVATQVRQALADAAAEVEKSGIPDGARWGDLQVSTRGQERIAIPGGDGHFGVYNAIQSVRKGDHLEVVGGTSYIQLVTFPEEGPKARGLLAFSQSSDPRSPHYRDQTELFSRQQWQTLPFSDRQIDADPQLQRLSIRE

[17] = tested on: HT-1080; assay: HT1080 cell viability loss – fluorescence readout (AID 620); format: functional, cell-based; details: Homo sapiens
[18] = target: Luciferin 4-monooxygenase (Photinus pyralis, UniProt P08659); assay: Counter Screen for Luciferase-based Assay Positives. [Related pubchem assays: 620, 618, 411 ]
[19] = tested on: HEK293; assay: EBV LMP1 TES2 canonical NF-kB signalling blockers – cell-based, HEK293, luciferase, cherry-pick, dose response (AID 588343); format: functional; details: Homo sapiens
[20] = target: Cytochrome P450 3A4 (Homo sapiens, UniProt P08684);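 also: CYP3A4 tested as one member of a cytochrome P450 panel screen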
[21] = target: G-protein coupled receptor 55 (Homo sapiens, UniProt Q9Y2T6); assay: selective activators of receptor GPR55 – imaging, U2OS cells, beta-arrestin-GFP redistribution, primary screen (AID 1961); format: functional
[22] = blockade of melanocortin 4 receptor signaling – cell-based, plate reader, cherry pick, counter-screen for LGR2 antagonist project, dose response (AID 743444); format: functional;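 also: transfected HEK 293 cells stimulated with alpha-MSH peptide; potency of inhibitors of the alpha-MSH evoked signal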
[23] = blockers of bursicon-stimulated LGR2 cAMP reporter – cell-based, HEK293, CRE-luciferase reporter, cherry pick, set 2, dose response (AID 743343); format: functional;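 also: transfected cells were stimulated with diluted bursicon conditioned medium after compound addition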
[24] = target: Voltage-gated inwardly rectifying potassium channel KCNH2 (Homo sapiens, UniProt Q12809); assay: concentration-dependent hERG rescue from blockers – cell-based, thallium flux, dose response (AID 2121); format: ADME
[25] = tested on: Streptococcus sp. 'group A'; assay: Streptococcus pyogenes SK(-)GAS viability under kanamycin – luminescence, BacTiterGlo, confirmation, counter-screen for streptokinase expression inhibitor project, dose response (AID 1900); format: functional, organism-based
[26] = microbe, parasite or virus in culture; format: functional; details: Mycobacterium tuberculosis
[27] = tested on: Streptococcus; assay: GAS UMAA2166 growth inhibition – luminescence, BacTiterGlo, counter-screen for streptokinase expression inhibitor project, dose response (AID 1915); format: functional, organism-based;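 also: potency for reduction of bacterial viability or growth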
[28] = target: FAD-linked sulfhydryl oxidase ALR (Homo sapiens, UniProt P55789); assay: ALR-catalysed DTT oxidation blockers – biochemical, H2O2 detection, luminescence, cherry-pick, dose response (AID 493248)
[29] = toxicity toward HepG2 liver cells – cell-based, plate reader, cherry-pick, antagonist series, cytotoxicity control, dose response (AID 743416); format: functional
[30] = non-specific 3'UTR reporter inhibition in Clone20-Shn3RL – cell-based, Renilla luciferase, cherry-picked, counter-screen for Shn3 inhibitor project, dose response (AID 624133); format: functional
[31] = loss of viability in HepG2 cells – cell-based, CellTiter-Glo, cherry-picked, cytotoxicity control for Shn3 inhibitor project, dose response (AID 624134); format: functional
[32] = tested on: INS1; assay: INS-1E survival protection against cytokine death – cell-based, luminescence, retest, dose response (AID 449756); format: functional; details: Rattus norvegicus;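 also: cell death triggered by IL-1 beta plus TNF-alpha plus IFN-gamma mixture; protective hits raise ATP signal compared with cytokine alone wells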
[33] = off-target signal loss in HeLa-CEM21 co-culture – HeLa F-luc CTL cells, cherry-picked, counter-screen for HIV-1 Env fusion inhibitor project, dose response (AID 652040); format: functional, cell-based;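 also: potency for signal decrease marking cytotoxic or nonspecific inhibition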
[34] = reduction of Shn3 3'UTR-driven luciferase in osteoblasts – cell-based, Clone20 osteoblasts, firefly luciferase, cherry-picked, dose response (AID 624132); format: functional;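 also: firefly luciferase luminescence from reporter carrying the Shn3 3'UTR in osteoblasts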
[35] = Dd2 malaria parasite growth inhibition potency – SYBR Green, dry powder samples, dose response (AID 1159566); format: functional, cell-based;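 also: potency for growth inhibition with lower SYBR green DNA signal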
[36] = growth inhibition of PfATP4-mutant resistant parasites – NITD609-resistant line, SYBR Green, dry powder, dose response (AID 1159571); format: functional, cell-based;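 also: parasites synchronized at ring stage by sorbitol before testing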
[37] = growth inhibition of yeast DHODH-expressing 3D7 parasites – SYBR Green, dry powder samples, dose response (AID 1159570); format: functional, cell-based;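 also: parasite growth measured after 72 hours of compound exposure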
[38] = P. falciparum Dd2 growth inhibitors, dose response, SYBR Green, cherry-picked samples (AID 1159567); format: functional, cell-based

SMILES: COc1ccc2cc(C(=O)C3CCCN(C(=O)c4cccnc4)C3)ccc2c1 (stereo not drawn)
- EC50 [1]: 23.7 µM (inactive)

SMILES: COc1ccc2c(c1)CCC1(C)CC(=O)C(Br)=C21 (stereo not drawn)
- IC50 [2]: > 138 µM (inactive)
- IC50 [3]: 3.21 µM (active)

SMILES: CO[C@H](CN(C)S(=O)(=O)c1ccc(Cl)cc1)[C@@H](C)CN([C@@H](C)CO)S(=O)(=O)c1cccc(Cl)c1
- AC50 [4]: 5.98 µM (active)
- AC50 [5]: 39.7 µM (active)
- AC50 [6]: 2.93 µM (active)
- AC50 [7]: 25.1 µM (active)

SMILES: CC(=O)Nc1cccc(NC(=S)Nc2ccc(F)c(Cl)c2)c1
- IC50 [8]: 50 µM (inactive)

SMILES: C[C@@H]1CN([C@H](C)CO)C(=O)c2cc(NC(=O)c3ccccc3)ccc2O[C@@H](C)CCCCO[C@@H]1CN(C)Cc1ccc(C(F)(F)F)cc1
- AC50 [9]: 8.24 µM (active)
- AC50 [10]: 50.2 µM (active)
- AC50 [11]: > 70 µM (inactive)

SMILES: OCCCNc1[nH]cnc2c3ccccc3nc1-2
- CC50 [12]: > 40 µM (active)

SMILES: C=CCn1c(C)cc(C2=NN=C(NCc3ccccc3)SC2)c1C
- IC50 [13]: 10.8 µM (active)
- CC50 [14]: 13.8 µM (active)
- CC50 [15]: > 20 µM (active)

SMILES: CO/N=C/c1ccc(Sc2ccccc2)c([N+](=O)[O-])c1
- AC50 [16]: 97.2 µM (active)

SMILES: Cc1cc(C(=O)CSc2nnc(-c3cccs3)o2)c(C)n1-c1ccccc1
- EC50 [17]: 22.6 µM (active)
- EC50 [18]: > 100 µM (not active)
- AC50 [19]: 5.59 µM (active)

SMILES: O=C(NC1CCSC1)c1cccc(Cl)c1 (stereo not drawn)
- AC50 [16]: 4.11 µM (active)

SMILES: CC(C)CCNC(=O)Cn1c2c(c(-c3ccccc3Cl)cc1=O)CCC2
- CC50 [12]: > 40 µM (active)

SMILES: Cc1ccc(-c2nc(-c3ccccc3)no2)cc1
- EC50 [17]: > 50 µM (not active)
- EC50 [18]: 1.67 µM (active)

SMILES: N#CC1=C(N)OC2=C(CC/C2=C\c2ccccc2)C1c1ccccc1 (stereo not drawn)
- AC50 [20]: 39.8 µM (inconclusive)
- EC50 [21]: > 32 µM (inactive)

SMILES: O=C(NC1CCCCCCC1)c1cccc(Cl)c1
- AC50 [16]: 5.02 µM (active)

SMILES: Cc1nc(SC2CCOC2=O)c2c(C)c(C)sc2n1 (stereo not drawn)
- IC50 [2]: > 138 µM (inactive)
- IC50 [3]: 1.93 µM (active)

SMILES: COc1ccc(OCC(=O)Nc2nccs2)cc1
- AC50 [22]: 5.99 µM (active)
- AC50 [19]: 4.63 µM (active)
- AC50 [23]: 5.35 µM (active)

SMILES: O=C(NC(=S)Nc1nc(-c2ccc(Br)cc2)cs1)c1ccco1
- EC50 [24]: 7.39 µM (active)

SMILES: COc1cc(NC(=O)c2ccco2)c(OC)cc1NC(=O)CCC(=O)Nc1cc(C)ccc1C
- EC50 [1]: 26.8 µM (inactive)

SMILES: Cc1cccc(/C=C2/SC(N/N=C3\CC4CCC3(C)C4(C)C)=NC2=O)c1 (stereo not drawn)
- EC50 [24]: 0.12 µM (active)
- EC50 [25]: 1.83 µM (active)
- CC50 [26]: > 40 µM (active)
- EC50 [27]: 1.3 µM (active)

SMILES: O=C(NC(=S)Nc1ccccc1)c1cc(-c2ccccc2)nc2ccccc12
- EC50 [24]: 0.38 µM (active)

SMILES: CCCOC(=O)Oc1ccc2c(=O)c(Oc3cc(C)cc(C)c3)coc2c1
- EC50 [1]: 3.19 µM (active)

SMILES: Cc1nc2cc(-c3nc4cc(N)ccc4o3)ccc2[nH]1
- AC50 [28]: 1.72 µM (active)
- EC50 [17]: > 50 µM (not active)
- EC50 [18]: > 100 µM (not active)

SMILES: COC(=O)[C@H](CC1(c2cn(S(=O)(=O)CC[Si](C)(C)C)c3ccccc23)C(=O)Nc2ccccc21)NC(=O)OC(C)(C)C (stereo partly drawn)
- IC50 [2]: > 138 µM (inactive)
- IC50 [3]: 11.7 µM (inactive)

SMILES: Cc1ccc(S(=O)(=O)N2[C@@H](CO)CO[C@H]2CC(=O)OCc2ccccc2)cc1
- AC50 [29]: > 52 µM (inactive)

SMILES: CC(C)(C)n1ncc2c(=O)n(Cc3cccc(Cn4cnc5c(cnn5C(C)(C)C)c4=O)c3F)cnc21
- AC50 [30]: 0.84 µM (active)
- AC50 [31]: 19.4 µM (active)
- AC50 [4]: 1.74 µM (active)
- AC50 [5]: 35.2 µM (active)
- AC50 [32]: 3.27 µM (active)
- AC50 [6]: 17.9 µM (active)
- AC50 [33]: 35.4 µM (active)
- AC50 [34]: 1.09 µM (active)
- AC50 [7]: 6.31 µM (active)

SMILES: COc1ccc2c3c(n(C)c2c1)[C@@H](CO)N(C(=O)C1CCCC1)CC31CN(C(=O)Nc2cccc(F)c2)C1
- AC50 [35]: 1.88 µM (active)
- AC50 [36]: 1.24 µM (active)
- AC50 [37]: 0.818 µM (active)
- AC50 [38]: 1.32 µM (active)
